# Measurements from a melting point compilation (Tetko et al.; mined from patent text by program, amines drawn as free bases though some values may be those of a salt).
row,melting point [°C],Structure (SMILES)
1,126 to 128,COc1ccc(C=CC(=O)O)cc1-c1cc2c(cc1OCCCCCCCC(=O)OC(C)(C)C)C(C)(C)CCC2(C)C
2,138 to 140,N#Cc1cccc2c1C(=O)OC2O (stereo not given)
3,71 to 73,C=CCc1cc2c(c(CC=C)c1O)N(CC=C)C(=O)CO2
4,99 to 101,COC(=O)c1ccc(OC2CCOC2=O)c([N+](=O)[O-])c1 (stereo not given)
5,62 to 64,CCCN(CCCCNc1ncc(CC2CCCCC2)c(=O)[nH]1)c1ccccn1
6,215 to 217,CCCCc1nc(CO)c(C(=O)O)n1Cc1ccc(-c2ccccc2-c2nnn[nH]2)cc1
7,88 to 90,CCCCN1C(C)=C(C(=O)OCC)C(c2cc([N+](=O)[O-])ccc2OCC(=O)OCC)C(C(=O)OCC)=C1C
8,156 to 158,COc1cc2[nH]c(N(C)Cc3cccc(C4CCN(C)CC4)c3)nc(=O)c2c(C)c1OC
9,103 to 104,N#Cc1ccc(CC2CC3CCC(C2)N3c2ccccc2)c2ccccc12 (stereo not given)
10,244 to 246,NC(=O)c1c(F)ccc(OCc2nc3cc(Br)ccc3s2)c1F
11,78 to 80,CCCN(C1CC(C)(C)Oc2ccc(OCCOC)cc21)S(=O)(=O)CC (stereo not given)
12,59 to 60,O=C(OCc1ccccc1)[C@H](O)CCc1ccccc1
13,269 to 271,CS(=O)(=O)c1ccc(-c2cc(=O)cc(C(=O)O)o2)cc1
14,146 to 150,O=C(O)c1cc(F)c(N(CCO)CCO)c(F)c1
15,127 to 130,CCN(CC)CCOc1ccc(NC(=O)C#Cc2ccc(C(F)(F)F)cc2Cl)cc1N
16,60,CCCCC[C@H]1CC[C@H](COc2ccc(C(=O)C(F)(F)F)cc2)CC1
17,167 to 168,O=C(O)C(=O)c1ccc(OCCOc2ccc3ccccc3c2)c(Cl)c1
18,228 to 230,COc1cc(Nc2ncc3cc(-c4c(Cl)cccc4Cl)c(=O)n(C)c3n2)cc(OC)c1
19,222 to 224,O=c1ccn2c(n1)COc1ccc(Cl)cc1-2
20,150 to 153,CC(CS)C(=O)N(CC(=O)O)Cc1ccco1 (stereo not given)
21,143 to 145,ClCCOc1c2ccccc2c(OCCCl)c2ccccc12
22,65 to 66,ClCCCn1ncc2cc(OCc3ccccc3)ccc21
23,125 to 126,Cc1oc(-c2ccccc2)nc1COc1ccc(CO)nc1
24,107 to 110,OCC1OC(n2cnc3c(NCC(c4ccccc4)c4cccc(Cl)c4)ncnc32)C(O)C1O (stereo not given)
25,150,COc1cc(CN[C@H]2CC[C@H](Nc3ccnc4cc(Cl)ccc34)CC2)cc(OC)c1
26,34 to 36,O=NSC1(C2OCCCO2)CCCCC1
27,89 to 90,COc1ccc([N+](=O)[O-])cc1C=O

row,melting point [°C],Structure (SMILES)
1,153 to 154,CN(c1cccc2cc(-c3nc(CCl)cs3)[nH]c12)S(=O)(=O)c1cccs1
2,164 to 166,CCCOCCOc1ccccc1-c1ccc2c(c1)C=C(C(=O)Nc1ccc(CN(C)C3CCOCC3)cc1)CCS2(=O)=O
3,133 to 134,COc1cccc(-c2nc(-c3ccccc3)c3ncc(-c4ccc(C(C)=O)cc4)cc3n2)c1
4,74 to 77,COc1cc(NC(=O)OC(C)CN2CCC(c3nn(C)c4cc(F)ccc34)CC2)cc(OC)c1OC (stereo not given)
5,133 to 134,Cc1cc(C)cc(COC(=O)C(Cc2c[nH]c3ccccc23)NC(=O)c2ccccc2)c1 (stereo not given)
6,143 to 145,CCN1C(=O)C(C)(C)C(=O)N(C)c2cc(CN(CCn3ccc4oc(C)cc4c3=O)Cc3ccncc3)ccc21
7,133 to 134,CNc1nc(C(C)c2ccc(-c3ccccc3)c(F)c2)c(C(=O)O)s1 (stereo not given)
8,90 to 92,COC(=O)[C@H](CS)NC(=O)[C@@H](O)CO
9,185,CNC(=O)c1ccccc1Nc1nc(Nc2ccc3c(c2)CCOCC3)ncc1Cl
10,269 to 271,O=C(NCc1ccc(Cl)cc1)c1n[nH]c2ccccc2c1=O
11,128 to 129,Cc1ccccc1CNc1cc(Br)cc2c1nc(C)n2C
12,201 to 203,c1ccc(-c2ccc3cnc(NCc4cccnc4)nn23)cc1
13,212 to 214,Cn1c(C(F)(F)F)cc(=O)n(-c2cc(OCN3C(=O)CCC3=O)c(Cl)cc2F)c1=O
14,115 to 117,O=C(O)CCOCC(I)=C(I)I
15,156,Nc1cccc(NC(=O)c2ccc(CNC(=O)OCc3cccnc3)cc2)c1
16,144,CCOc1nn(C(=O)NS(=O)(=O)c2c(Cl)cccc2SC)c(=O)n1C
17,93 to 95,CC(=O)N1CCc2c(sc(C)c2CCBr)C1
18,166,N#CCCN1CC(=O)N(CCC#N)CC1=O
19,146 to 148,COc1cc(C(=O)N2Cc3cccn3Cc3ccccc32)ccc1-c1ccccc1C(F)(F)F
20,220 to 222,CS(=O)(=O)N1CCC(Nc2nc(Cl)nc(Nc3cccc(C(F)(F)F)c3)n2)CC1
21,57 to 59,CN(C)Cc1ccccc1Sc1ccc(F)cc1[N+](=O)[O-]
22,108 to 109,Cc1c(Cc2cccc(C(F)(F)F)c2)oc2cccc(-c3cccc(C(=O)NCCC#N)c3)c12
23,85 to 86,O=C1C[C@@H]2CCCC[C@@H]2N1O (relative stereo)
24,190 to 192,O=C1CC2CS(=O)c3ccccc3C2=NN1c1ccc(Cl)cc1 (stereo not given)
25,127,Cc1c(Cl)c(C=O)c(C)c2c1CC(C)(C)C2
26,142 to 145,O=c1c2cccnc2c(-c2cccc(Cl)c2)cn1Cc1cccs1

# Continued, compound first:
row,Structure (SMILES),melting point [°C]
1,CN1C(=O)C(CCCN2CCN(c3ccc(F)cc3)CC2)Oc2cc3c(cc21)CCCC3 (stereo not given),98 to 98.5
2,Cc1nc(N2CCN(Cc3ccccc3)C2=O)sc1C(=O)O,248 to 249
3,COc1cccc2c1Cc1ccccc1C2(CCOS(C)(=O)=O)CCOS(C)(=O)=O,128 to 131
4,CCOC(=O)c1cc(-n2c(OC)nc(C(F)(F)F)cc2=O)c(F)cc1Cl,91 to 93
5,CCC[C@H](C)C(=O)O[C@H]1CCC=C2C=C[C@H](C)[C@H](CC[C@@H]3C[C@@H](O)CC(=O)O3)[C@H]21,110 to 112
6,N#CC(c1ccnc(OCc2ccccc2)n1)c1nc2ccccc2s1 (stereo not given),196 to 198
7,CC1=C(CCCl)C(=O)C2Sc3ccccc3N2C1 (stereo not given),114
8,O=C(O)Cc1ccc2ncsc2c1,147 to 149
9,O=C(Cn1c(-c2ccc(Cl)cc2)nc2cccnc21)NC1=NCCS1,227 to 229
10,COC1=CC(=O)C2CC(O[Si](C)(C)C)=CC(OC)C2C1=O (stereo not given),108 to 110
11,COc1cc(C2=C(c3cn(C)c4ccccc34)C(=O)NC2=O)cc(OC)c1OC,187
12,NNC(=O)c1cc(N2CCN(c3ccc([N+](=O)[O-])cc3)CC2)ccn1,230 to 232
13,Nc1ccc(NC(=O)NCc2ccc3c(c2)CN(C2CCC(=O)NC2=O)C3=O)cc1 (stereo not given),> 400
14,CN1C(=O)[C@H](N)N=C(C2CCCCC2)c2ccccc21,130 to 133
15,O=C(CNc1ccccc1)Nc1cc(F)c(F)cc1C(=O)O,124 to 126
16,N#Cc1cc(N)ccc1N1CCN(CCO)CC1,137 to 138
17,C=CCc1cc(CCC(=O)OCC)ccc1C#CC1(O)CN2CCC1CC2 (stereo not given),55 to 56
18,CN(CCOc1ccc(C=CC(=O)N2CCc3c([nH]c4ccccc34)C2c2ccc3c(c2)CCO3)cc1)C(=O)OC(C)(C)C (stereo not given),110
19,COc1ccc(C(O)c2ccc(OC)c(OCc3ccccc3)c2)cc1OCc1ccccc1,103 to 105
20,NCCCCCCCCOc1cccc2ccccc12,90.5 to 92
21,CCCCCCCCCCCCCCCCOc1coc(CO)cc1=O,68 to 69.5
22,CCOC(=O)CNc1ccc2c3c(n(CCCNC(=O)OC(C)(C)C)c(=O)c2c1)-c1ccccc1C3=O,203 to 204
23,Cc1ncccc1Cn1nnnc1-c1ccc(Cl)c(Cl)c1,176 to 178
24,COC1=NS(=O)(=O)N(Cc2ccccc2)C(N)=N1,141 to 144

row,Structure (SMILES),melting point [°C]
1,O=C(/C=C/C=C(c1cccc(C(F)(F)F)c1)c1cccc(C(F)(F)F)c1)NCCCCc1cccnc1,89 to 90
2,CCc1cc(-c2ccc(NC(=O)N3CCc4cc(SC)c(C(F)(F)F)cc43)cc2)ccn1,158 to 161
3,Cc1ccc(C2=NC(C)(C(C)C)C(=O)N2)cc1 (stereo not given),151 to 154
4,CCN(CC)C(=O)Oc1nc(-c2ccccc2)nc2ccccc12,54
5,C=CCN(CC=C)C(=O)C1=C(C(=O)Nc2cc(OC3CCCC3)c(Cl)cc2F)CCCC1,74 to 76
6,C#CCOC(=O)C1=C(C)N2CCNC2=C(C(=O)OCC)C1c1cccc([N+](=O)[O-])c1 (stereo not given),153
7,CC(=O)Nc1cnn2c(C)nc3ccccc3c12,258 to 260
8,O=C(O)CCOc1cccc(F)c1,90 to 91
9,CC1(C)COC(c2ccc(N)c(N)c2)(c2cccs2)OC1,178
10,COC(=O)c1[nH]c2ccc(OC)cc2c1SC,128 to 130
11,c1ccc2nc(COc3ccc(CCc4ccc(-c5nnn[nH]5)cc4)cc3)ccc2c1,203 to 206
12,CC(=O)CCCCCC(=O)N[C@@H](C)C(=O)N[C@H](CCC(=O)OCc1ccccc1)C(N)=O,162
13,COc1cc(C)nc(NC(=O)NS(=O)(=O)c2cccc3c2OC(C)(C)O3)n1,180 to 183
14,CN1Cc2cccnc2C(N2CC[N+]([O-])(C(=O)Cc3ccncc3)CC2)c2ccc(Cl)cc21 (stereo not given),115 to 118
15,COc1ccc2nc(O)c(O)nc2c1,> 300
16,Cc1c(C(=O)O)cnn1-c1c(Cl)cc(Cl)cc1Cl,184 to 186
17,Fc1cccc(F)c1-c1ncc(Oc2cccc(Cl)c2)nn1,132 to 137
18,O=C(NC1CCCCC1)NS(=O)(=O)c1cnccc1NC1CCCCC1,165 to 167
19,CCC(=O)OCC(=O)C12OCOC1CC1C3CCC4=CC(=O)C=CC4(C)C3C(O)CC12C (stereo not given),184 to 185
20,COC(=O)c1ccc2c(c(C)nn2C)c1C1=NC(C)(C(C)C)C(=O)N1 (stereo not given),130 to 150
21,COc1cc2cc(C(=O)O)cc(-c3ccnc(Cl)c3)c2cc1OC,> 250
22,Cc1ccccc1CC1=NNC(=O)CC1,123 to 125
23,O=C(O)c1cn(CC2CC2)c2c(F)c(F)c(F)cc2c1=O,223 to 255
